Assay results taken from patent US20120021979A1 (Vanderbilt University, priority 2010, published 2012).

Key:
[1] = test system: Na+/K+ ATPase; test: slice based biotinylation, Na+/K+ ATPase surface expression in striatal slices; assay type: cell-based; conditions: 100 nM, 20 min, rat striatal slices, vs vehicle
From the text: In addition, the absence of tyrosine hydroxylase (TH, a cytosolic protein found in DAT terminals) from the biotinylated surface fraction serves a control for the integrity of our slice preparation and specificity of the surface signal.

[2] = test system: DAT; test: radiolabeled DA [3H-DA] uptake in striatal slices; assay type: cell-based; conditions: 100 nM for 10 min, 3H-DA 10 min, vs vehicle
Protocol: Slices were exposed to ^3H-DA for 10 min and then washed to remove excess DA at 4° C. to stop uptake. Slices were homogenized and ^3H-DA quantified by a scintillation counter.

[3] = test system: DAT; test: chronoamperometry of AMPH-induced DA efflux in striatal slices; assay type: cell-based; conditions: pretreatment 100 nM for 20 min, AMPH 10 μM
From the text: Chronoamperometry was used to evaluate AMPH-induced DA efflux in striatal slices.

[4] = biological target: T1, GLP-1 receptor (Rattus norvegicus, UniProt P32301); test: locomotor activity with or without AMPH; assay type: in vivo
T1 construct: from tissue; host or cells: whole animal (in vivo, i.p. dosing)
T1 sequence (P32301 22-463): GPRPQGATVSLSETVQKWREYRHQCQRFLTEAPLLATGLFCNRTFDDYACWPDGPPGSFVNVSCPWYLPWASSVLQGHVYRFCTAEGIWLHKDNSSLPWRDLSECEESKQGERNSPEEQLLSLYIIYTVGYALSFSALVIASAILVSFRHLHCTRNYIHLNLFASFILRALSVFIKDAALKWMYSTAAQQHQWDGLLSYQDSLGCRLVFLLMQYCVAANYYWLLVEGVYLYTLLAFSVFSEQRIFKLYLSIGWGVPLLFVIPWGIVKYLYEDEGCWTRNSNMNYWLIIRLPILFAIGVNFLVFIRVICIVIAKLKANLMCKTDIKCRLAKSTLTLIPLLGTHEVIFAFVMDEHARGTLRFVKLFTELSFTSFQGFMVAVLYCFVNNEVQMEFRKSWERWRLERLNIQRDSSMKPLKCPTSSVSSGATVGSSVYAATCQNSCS

| AMPH-induced locomotor activity ([4]; 30 μg/kg i.p. 90 min prior to AMPH 2.78 mg/Kg i.p.) | basal locomotion ([4]; 30 μg/kg i.p., absence of AMPH) | Substance | surface expression of the Na+/K+ ATPase [1] | DA uptake (3H-DA) [2] | AMPH-induced increase in extracellular DA [3] |
| --- | --- | --- | --- | --- | --- |
| – | – | Glucagon-like peptide-1 [GLP-1] | did not affect | significantly increased | significantly potentiates |
| significantly decreased | significantly decreased | exendin-4 [EX4] | – | – | – |
